IC50 and inhibition data for twelve compounds are collected here from publication PMC11433573 (Marine Drugs, 2024).

Positions of bridges follow the written chain, without caps; N, C: chain ends. Non-standard residues stand in square brackets, D forms with d. Residues, ends and D or L forms follow the SMILES beside them. Hyp = O=C(O)[C@@H]1C[C@@H](O)CN1

Holding throughout (assay): cell-based
One assay addresses T1, rα3β2 nAChR (Rattus norvegicus, UniProt P04757+P12390).
T1 construct: expressed in transfected cells; host or cells: Xenopus laevis oocytes injected with cRNA
The following applies: for inhibition at 10 µM: read-out: inhibition of rα3β2 at 10 μM.

The target in the next assay is T2, rα3β4 nAChR (Rattus norvegicus, UniProt P04757+P12392).
T2 construct: expressed in transfected cells; host or cells: Xenopus laevis oocytes injected with cRNA
T2 sequence (P04757 26-499): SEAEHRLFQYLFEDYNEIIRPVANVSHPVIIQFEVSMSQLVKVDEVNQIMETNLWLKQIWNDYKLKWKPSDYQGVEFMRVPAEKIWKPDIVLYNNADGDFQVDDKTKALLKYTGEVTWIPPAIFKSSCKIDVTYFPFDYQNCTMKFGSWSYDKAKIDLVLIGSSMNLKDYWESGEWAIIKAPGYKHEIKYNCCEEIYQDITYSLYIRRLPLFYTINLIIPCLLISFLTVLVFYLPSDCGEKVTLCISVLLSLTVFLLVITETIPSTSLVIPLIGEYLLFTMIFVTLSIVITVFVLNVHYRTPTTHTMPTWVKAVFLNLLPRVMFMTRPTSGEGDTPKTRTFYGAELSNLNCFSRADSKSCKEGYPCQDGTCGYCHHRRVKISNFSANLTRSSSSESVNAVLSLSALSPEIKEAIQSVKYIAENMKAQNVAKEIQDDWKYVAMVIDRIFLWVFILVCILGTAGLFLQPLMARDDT
T2 sequence (P12392 22-495 limits assumed): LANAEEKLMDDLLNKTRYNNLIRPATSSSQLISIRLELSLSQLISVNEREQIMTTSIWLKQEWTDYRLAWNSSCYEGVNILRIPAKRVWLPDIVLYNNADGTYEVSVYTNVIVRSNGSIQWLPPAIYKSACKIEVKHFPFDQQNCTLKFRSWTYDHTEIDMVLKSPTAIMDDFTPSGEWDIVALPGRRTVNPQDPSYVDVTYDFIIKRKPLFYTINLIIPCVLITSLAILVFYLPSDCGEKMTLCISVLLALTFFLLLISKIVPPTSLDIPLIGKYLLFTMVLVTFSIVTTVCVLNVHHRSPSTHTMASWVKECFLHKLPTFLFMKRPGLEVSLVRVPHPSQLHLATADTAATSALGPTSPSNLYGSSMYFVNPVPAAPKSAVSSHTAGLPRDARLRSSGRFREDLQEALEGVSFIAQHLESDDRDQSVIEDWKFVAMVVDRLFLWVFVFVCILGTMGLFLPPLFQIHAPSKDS
The settings on record: for inhibition at 10 µM: read-out: inhibition of rα3β4 at 10 μM.

Another assay addresses T3, rα7 nAChR (Rattus norvegicus, UniProt Q05941).
T3 construct: expressed in transfected cells; host or cells: Xenopus laevis oocytes injected with cRNA

T3 sequence (Q05941 23-502): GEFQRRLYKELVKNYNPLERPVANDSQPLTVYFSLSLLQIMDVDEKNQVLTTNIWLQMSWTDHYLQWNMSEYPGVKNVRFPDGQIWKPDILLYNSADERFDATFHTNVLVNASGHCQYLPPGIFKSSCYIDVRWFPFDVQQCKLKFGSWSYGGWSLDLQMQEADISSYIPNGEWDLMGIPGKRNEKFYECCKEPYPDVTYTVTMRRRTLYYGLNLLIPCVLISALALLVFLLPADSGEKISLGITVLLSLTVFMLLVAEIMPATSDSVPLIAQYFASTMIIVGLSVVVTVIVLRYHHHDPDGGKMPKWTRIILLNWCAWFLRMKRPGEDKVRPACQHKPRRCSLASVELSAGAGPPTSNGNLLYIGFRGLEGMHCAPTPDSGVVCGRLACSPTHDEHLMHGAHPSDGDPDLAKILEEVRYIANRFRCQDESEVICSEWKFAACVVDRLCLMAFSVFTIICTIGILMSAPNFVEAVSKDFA
T1 sequence (P04757 26-499): as the sequence (P04757 26-499) above
T1 sequence (P12390 25-500): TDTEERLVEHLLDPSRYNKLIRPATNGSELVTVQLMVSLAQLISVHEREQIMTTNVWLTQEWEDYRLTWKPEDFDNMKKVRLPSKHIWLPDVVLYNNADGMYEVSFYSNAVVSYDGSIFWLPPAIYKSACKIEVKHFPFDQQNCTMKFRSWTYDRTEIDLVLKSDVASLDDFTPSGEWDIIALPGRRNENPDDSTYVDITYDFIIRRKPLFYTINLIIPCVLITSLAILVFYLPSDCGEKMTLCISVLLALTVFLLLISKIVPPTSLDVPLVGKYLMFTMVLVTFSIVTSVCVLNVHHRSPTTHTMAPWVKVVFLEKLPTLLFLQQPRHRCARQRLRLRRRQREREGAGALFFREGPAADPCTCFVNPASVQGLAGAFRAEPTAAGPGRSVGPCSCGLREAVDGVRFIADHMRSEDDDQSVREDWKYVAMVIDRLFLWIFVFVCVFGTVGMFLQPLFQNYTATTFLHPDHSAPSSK

As to `CC[C@H](C)[C@@H]1NC(=O)[C@H](Cc2cnc[nH]2)NC(=O)[C@@H]2CCCN2C(=O)[C@H](CC(N)=O)NC(=O)[C@H](CC(N)=O)NC(=O)[C@H](C(C)C)NC(=O)[C@H](CC(N)=O)NC(=O)[C@@H]2CSSC[C@H](NC(=O)CN)C(=O)N[C@@H](CSSC[C@@H](C(N)=O)NC1=O)C(=O)N[C@@H](CO)C(=O)N[C@@H](Cc1cnc[nH]1)C(=O)N1CCC[C@H]1C(=O)N[C@@H](C)C(=O)N2` [RegIIA, reference compound] (H-GCCSHPACNVNNPHIC-NH2; disulfide 2-8, 3-16), the 50% inhibitory concentration (IC50) – broadly, the concentration that inhibits the measured activity by half – against rα3β2 nAChR was determined as 36 nM; against rα3β4 nAChR, 102 nM; at rα7 nAChR, 43 nM.
The matching figures for `CC[C@H](C)[C@@H]1NC(=O)[C@H](Cc2c[nH]cn2)NC(=O)[C@@H]2CCCN2C(=O)[C@H](CC(N)=O)NC(=O)[C@H](CC(N)=O)NC(=O)[C@H](C(C)C)NC(=O)[C@H](CC(N)=O)NC(=O)[C@@H]2CSSC[C@H](NC(=O)CN)C(=O)N[C@@H](CSSC[C@@H](C(N)=O)NC1=O)C(=O)N[C@@H](CO)C(=O)N[C@@H](Cc1c[nH]cn1)C(=O)N1CCC[C@H]1C(=O)NCC(=O)N2` [[A7G]RegIIA] (H-GCCSHPGCNVNNPHIC-NH2; disulfide 2-8, 3-16): above 10000 nM, 964 nM and 600 nM.
For `CC[C@H](C)[C@@H]1NC(=O)[C@H](Cc2c[nH]cn2)NC(=O)[C@@H]2CCCN2C(=O)[C@H](CC(N)=O)NC(=O)[C@H](CC(N)=O)NC(=O)[C@H](C(C)C)NC(=O)[C@H](CC(N)=O)NC(=O)[C@@H]2CSSC[C@H](NC(=O)[C@H](C)N)C(=O)N[C@@H](CSSC[C@@H](C(N)=O)NC1=O)C(=O)N[C@@H](CO)C(=O)N[C@@H](Cc1c[nH]cn1)C(=O)N1CCC[C@H]1C(=O)N[C@@H](C)C(=O)N2` [[G1A]RegIIA] (H-ACCSHPACNVNNPHIC-NH2; disulfide 2-8, 3-16), the IC50 was found to be 90 nM against rα3β2 nAChR, 132 nM against rα3β4 nAChR and 286 nM against rα7 nAChR.
Turning to `CC[C@H](C)[C@@H]1NC(=O)[C@H](Cc2c[nH]cn2)NC(=O)[C@@H]2CCCN2C(=O)[C@H](CC(N)=O)NC(=O)[C@H](CC(N)=O)NC(=O)[C@H](C(C)C)NC(=O)[C@H](CC(N)=O)NC(=O)[C@@H]2CSSC[C@H](NC(=O)CN)C(=O)N[C@@H](CSSC[C@@H](C(N)=O)NC1=O)C(=O)N[C@@H](CO)C(=O)N[C@@H](C)C(=O)N1CCC[C@H]1C(=O)N[C@@H](C)C(=O)N2` [[H5A]RegIIA] (H-GCCSAPACNVNNPHIC-NH2; disulfide 2-8, 3-16), the figures for the concentration for half-maximal inhibition (IC50) against rα3β2 nAChR, on rα3β4 nAChR and against rα7 nAChR were above 10000 nM, above 10000 nM and 446 nM, respectively. For the same compound, the inhibition at 10 µM on rα3β2 nAChR and on rα3β4 nAChR was below 50% throughout.
In the case of `CC[C@H](C)[C@@H]1NC(=O)[C@H](Cc2c[nH]cn2)NC(=O)[C@@H]2CCCN2C(=O)[C@H](CC(N)=O)NC(=O)[C@H](CC(N)=O)NC(=O)[C@H](C(C)C)NC(=O)[C@H](CC(N)=O)NC(=O)[C@@H]2CSSC[C@H](NC(=O)CN)C(=O)N[C@@H](CSSC[C@@H](C(N)=O)NC1=O)C(=O)N[C@@H](CO)C(=O)N[C@@H](CCC(=O)O)C(=O)N1CCC[C@H]1C(=O)N[C@@H](C)C(=O)N2` [[H5E]RegIIA] (H-GCCSEPACNVNNPHIC-NH2; disulfide 2-8, 3-16), the IC50 was above 10000 nM on rα3β2 nAChR, above 10000 nM at rα3β4 nAChR and 441 nM at rα7 nAChR.
Consider `CC[C@H](C)[C@@H]1NC(=O)[C@H](Cc2c[nH]cn2)NC(=O)[C@@H]2CCCN2C(=O)[C@H](CC(N)=O)NC(=O)[C@H](CC(N)=O)NC(=O)[C@H](C(C)C)NC(=O)[C@H](CC(N)=O)NC(=O)[C@@H]2CSSC[C@H](NC(=O)CN)C(=O)N[C@@H](CSSC[C@@H](C(N)=O)NC1=O)C(=O)N[C@@H](CO)C(=O)NCC(=O)N1CCC[C@H]1C(=O)N[C@@H](C)C(=O)N2` [[H5G]RegIIA] (H-GCCSGPACNVNNPHIC-NH2; disulfide 2-8, 3-16), for which the figures for the IC50 against rα3β2 nAChR, on rα3β4 nAChR and against rα7 nAChR were above 10000 nM, above 10000 nM and 3540 nM, respectively.
For the compound `CC[C@H](C)[C@@H]1NC(=O)[C@H](Cc2c[nH]cn2)NC(=O)[C@@H]2CCCN2C(=O)[C@H](CC(N)=O)NC(=O)[C@H](CC(N)=O)NC(=O)[C@H](C(C)C)NC(=O)[C@H](CC(N)=O)NC(=O)[C@@H]2CSSC[C@H](NC(=O)CN)C(=O)N[C@@H](CSSC[C@@H](C(N)=O)NC1=O)C(=O)N[C@@H](CO)C(=O)N[C@@H](CC(C)C)C(=O)N1CCC[C@H]1C(=O)N[C@@H](C)C(=O)N2` [[H5L]RegIIA] (H-GCCSLPACNVNNPHIC-NH2; disulfide 2-8, 3-16), the half-maximal inhibitory concentration (IC50) on rα3β2 nAChR, on rα3β4 nAChR and against rα7 nAChR was above 10000 nM throughout.
With `CC[C@H](C)[C@@H]1NC(=O)[C@H](Cc2c[nH]cn2)NC(=O)[C@@H]2CCCN2C(=O)[C@H](CC(N)=O)NC(=O)[C@H](CC(N)=O)NC(=O)[C@H](C(C)C)NC(=O)[C@H](CC(N)=O)NC(=O)[C@@H]2CSSC[C@H](NC(=O)CN)C(=O)N[C@@H](CSSC[C@@H](C(N)=O)NC1=O)C(=O)N[C@@H](CO)C(=O)N[C@@H](CO)C(=O)N1CCC[C@H]1C(=O)N[C@@H](C)C(=O)N2` [[H5S]RegIIA] (H-GCCSSPACNVNNPHIC-NH2; disulfide 2-8, 3-16), the IC50 at rα3β2 nAChR is above 10000 nM; at rα3β4 nAChR it was 5730 nM; against rα7 nAChR, 100 nM.
On the same counts, the results for `CC[C@H](C)[C@@H]1NC(=O)[C@H](Cc2c[nH]cn2)NC(=O)[C@@H]2CCCN2C(=O)[C@H](CC(N)=O)NC(=O)[C@H](CC(N)=O)NC(=O)[C@H](C(C)C)NC(=O)[C@H](CC(N)=O)NC(=O)[C@@H]2CSSC[C@H](NC(=O)CN)C(=O)N[C@@H](CSSC[C@@H](C(N)=O)NC1=O)C(=O)N[C@@H](CO)C(=O)N[C@@H](C(C)C)C(=O)N1CCC[C@H]1C(=O)N[C@@H](C)C(=O)N2` [[H5V]RegIIA] (H-GCCSVPACNVNNPHIC-NH2; disulfide 2-8, 3-16) are above 10000 nM, 8800 nM and 97 nM.
As for `CC[C@H](C)[C@@H]1NC(=O)[C@H](Cc2c[nH]cn2)NC(=O)[C@@H]2CCCN2C(=O)[C@H](CC(N)=O)NC(=O)[C@H](CC(N)=O)NC(=O)[C@H](C(C)C)NC(=O)[C@H](CC(N)=O)NC(=O)[C@@H]2CSSC[C@H](NC(=O)CN)C(=O)N[C@@H](CSSC[C@@H](C(N)=O)NC1=O)C(=O)N[C@@H](CO)C(=O)N[C@@H](Cc1c[nH]cn1)C(=O)N[C@@H](C)C(=O)N[C@@H](C)C(=O)N2` [[P6A]RegIIA] (H-GCCSHAACNVNNPHIC-NH2; disulfide 2-8, 3-16), the half-maximal inhibitory concentration (IC50) on rα3β2 nAChR is above 10000 nM; against rα3β4 nAChR, above 10000 nM; at rα7 nAChR, 459 nM. The inhibition at 10 µM on rα3β2 nAChR and at rα3β4 nAChR was below 50% each time.
Turning to `CC[C@H](C)[C@@H]1NC(=O)[C@H](Cc2c[nH]cn2)NC(=O)[C@@H]2CCCN2C(=O)[C@H](CC(N)=O)NC(=O)[C@H](CC(N)=O)NC(=O)[C@H](C(C)C)NC(=O)[C@H](CC(N)=O)NC(=O)[C@@H]2CSSC[C@H](NC(=O)CN)C(=O)N[C@@H](CSSC[C@@H](C(N)=O)NC1=O)C(=O)N[C@@H](CO)C(=O)N[C@@H](Cc1c[nH]cn1)C(=O)N1C[C@H](O)C[C@H]1C(=O)N[C@@H](C)C(=O)N2` [[P6O]RegIIA] (H-GCCSH[Hyp]ACNVNNPHIC-NH2; disulfide 2-8, 3-16), the IC50 at rα3β2 nAChR, at rα3β4 nAChR and against rα7 nAChR was above 10000 nM throughout.
Take `CC[C@H](C)[C@@H]1NC(=O)[C@H](Cc2c[nH]cn2)NC(=O)[C@@H]2CCCN2C(=O)[C@H](CC(N)=O)NC(=O)[C@H](CC(N)=O)NC(=O)[C@H](C(C)C)NC(=O)[C@H](CC(N)=O)NC(=O)[C@@H]2CSSC[C@H](NC(=O)CN)C(=O)N[C@@H](CSSC[C@@H](C(N)=O)NC1=O)C(=O)N[C@@H](C)C(=O)N[C@@H](Cc1c[nH]cn1)C(=O)N1CCC[C@H]1C(=O)N[C@@H](C)C(=O)N2` [[S4A]RegIIA] (H-GCCAHPACNVNNPHIC-NH2; disulfide 2-8, 3-16): the values for the half-inhibitory concentration (IC50) against rα3β2 nAChR, against rα3β4 nAChR and against rα7 nAChR were 34 nM, 95 nM and 39 nM, respectively.
